Experimental data: patent US20200361871A1 (Enterprise Therapeutics Ltd., priority 2018, published 2020)
pEC50: −log10 of the molar value.

Target: human TMEM16A (TMEM16Aabc variant) (Homo sapiens, UniProt Q5XXA6, DEL476-501, form not given)
Experiment: Automated whole-cell patch clamp (Qpatch) TMEM16A potentiator assay in FRT cells stably expressing human TMEM16A
Assay type: cell-based
Conditions: for % Potentiation @ 3.33 μM Avg: 3.33 μM solution of test compound, percentage increase of baseline TMEM16A current; for pEC50: calculated EC50, Qpatch TMEM16A current at +70 mV
Description: FIG. 1 is an example trace from a whole-cell patch clamp (Qpatch) TMEM16A potentiator assay as used in Biological Example 95 and illustrates the methodology used in the assay. In FIG. 1: S is Saline; V is Vehicle; #1 is Test Compound concentration #1; #2 is Test Compound concentration 2; #3 is Test Compound concentration 3; #4 is Test Compound concentration 4; #5 is Test Compound concentration #5; and R is Reference. The arrow in column V represents the baseline current, IBL. The arrows in each of the columns #1, #2, #3, #4, #5 and R represent I#[1], I#[2], I#[3], I#[4], I#[5] and I[Ref], which are the peak currents during the incubation periods for test compounds concentrations #1 to #5 and the Reference.
Fisher rat thyroid (FRT) cells stably expressing human TMEM16A (TMEM16Aabc variant; Dr Luis Galietta, Insituto Giannina, Italy) were cultured in T-75 flasks in Hams F-12 media with Coon's modification (Sigma) supplemented with 10% (v/v) foetal bovine serum, penicillin-streptomycin (10,000 U/mL/10000 μg/mL), G-418 (750 μg/mL), L-glutamine (2 mM) and sodium bicarbonate solution (7.5% v/v). At ˜90% confluence cells were harvested for experiments by detachment with a 2:1 (v/v) mixture of Detachin (BMS Biotechnology) and 0.25% (w/v) trypsin-EDTA. Cells were diluted to a density of 3.5-4.5×10^6 cells/mL with media consisting of CHO-S-SFM II (Sigma), 25 mM HEPES (Sigma) and Soy bean trypsin inhibitor (Sigma).
FRT-TMEM16A cells were whole-cell patch clamped using an automated planar patch clamp system (Qpatch, Sophion). Briefly, once high resistance (GOhm) seals were established between the cells and the planar recording array the patch was ruptured using suction pulses to establish the whole-cell recording configuration of the patch clamp technique. The assay employed the following solutions (all reagents Sigma): Intracellular solution (mM): N-methyl-D-glucamine 130, CaCl2 18.2, MgCl2 1, HEPES 10, EGTA 10, BAPTA 20, Mg-ATP 2, pH 7.25, 325 mOsm with sucrose.
Extracellular solution (mM): N-methyl-D-glucamine 130, CaCl2 2, MgCl2 1, HEPES 10, pH 7.3, 320 mOsm with sucrose.
The intracellular solution buffers intracellular calcium at levels required to give ˜20% activation of the maximal TMEM16A mediated current (EC20 for calcium ions). Cells were voltage clamped at a holding potential of −70 mV and a combined voltage step (to +70 mV)/ramp (−90 my to +90 mV) was applied at 0.05 Hz. After a period of current stabilisation test compounds, solubilised in 100% (v/v) DMSO and subsequently diluted into extracellular solution, were applied to generate a cumulative concentration response curve. Each concentration of test compound was incubated for 5 minutes before addition of the next concentration. After the final concentration was tested a supramaximal concentration of either a known active positive modulator or the TMEM16A inhibitor, CaCCinhA01 (Del La Fuente et al, 2008) was added to define the upper and lower limits of the assay.
Compound activity was quantified by measuring the increase in current upon compound addition and expressing this as a percentage increase of baseline TMEM16A current level. Percentage increases in current were determined for each concentration and the data plotted as a function of concentration using either the Qpatch software or Graphpad Prism v6.05 providing the concentration which gave 50% of its maximal effect (EC50) and maximum efficacy (percentage of baseline increase).
In FIG. 1, IBL equals baseline current, I[#1] equals the peak current during test compound concentration 1 incubation period and so on.
Peak TMEM16A current at +70 mV was plotted as a function of time over the assay period. Baseline current (IBL) was measured after a period of stabilisation. The increase in current for each compound addition was determined by taking the peak current during the incubation period and subtracting the current from the previous recording period and then expressing this as a percentage of the baseline current. […]

Chain of human TMEM16A (TMEM16Aabc variant) (Q5XXA6 with tags, fused parts or gaps DEL476-501): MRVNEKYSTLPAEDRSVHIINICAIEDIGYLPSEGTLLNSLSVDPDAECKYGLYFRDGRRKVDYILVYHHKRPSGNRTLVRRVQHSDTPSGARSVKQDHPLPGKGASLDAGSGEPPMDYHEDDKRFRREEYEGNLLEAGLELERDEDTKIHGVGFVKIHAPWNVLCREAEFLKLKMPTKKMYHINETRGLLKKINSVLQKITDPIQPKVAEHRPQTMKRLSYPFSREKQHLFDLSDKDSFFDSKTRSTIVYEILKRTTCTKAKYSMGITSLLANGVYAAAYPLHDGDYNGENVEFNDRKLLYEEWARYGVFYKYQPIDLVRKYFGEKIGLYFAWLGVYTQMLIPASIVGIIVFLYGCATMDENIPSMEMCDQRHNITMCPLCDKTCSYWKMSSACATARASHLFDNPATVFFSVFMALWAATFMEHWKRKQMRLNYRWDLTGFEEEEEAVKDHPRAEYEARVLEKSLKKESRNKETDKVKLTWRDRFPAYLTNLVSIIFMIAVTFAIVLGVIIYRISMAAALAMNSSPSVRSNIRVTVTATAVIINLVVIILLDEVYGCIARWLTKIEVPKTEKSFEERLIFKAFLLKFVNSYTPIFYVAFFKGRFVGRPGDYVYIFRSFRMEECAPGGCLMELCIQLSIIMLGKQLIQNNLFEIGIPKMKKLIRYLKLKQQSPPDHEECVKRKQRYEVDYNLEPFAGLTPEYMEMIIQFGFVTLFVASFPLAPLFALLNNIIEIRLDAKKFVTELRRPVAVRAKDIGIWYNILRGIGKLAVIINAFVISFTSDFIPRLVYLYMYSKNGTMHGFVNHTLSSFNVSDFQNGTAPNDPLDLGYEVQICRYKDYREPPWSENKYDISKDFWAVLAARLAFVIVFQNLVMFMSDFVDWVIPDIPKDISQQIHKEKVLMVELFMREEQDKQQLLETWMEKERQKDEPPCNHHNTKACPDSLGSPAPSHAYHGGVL

SMILES | % Potentiation @ 3.33 μM Avg | pEC50
CC1(NC(=O)c2cc(NC(=O)Cc3cc(Cl)c(F)cc3O)ccn2)CCC1 [Example 76, 4-[[2-(5-Chloro-4-fluoro-2-hydroxy-phenyl)acetyl]amino]-N-(1-methylcyclobutyl)pyridine-2-carboxamide] | 366% | 6.66
CC(C)(C)NC(=O)c1cc(NC(=O)Cc2ccc(C(C)(C)C)cc2O)ccn1 [Example 90, N-tert-Butyl-4-[[2-(4-tert-butyl-2-hydroxy-phenyl)acetyl]amino]pyridine-2-carboxamide] | 219% | 6.92
CC1(NC(=O)c2cc(NC(=O)Cc3cc(Cl)ccc3O)ccn2)CCCCC1 [Example 1.7, 4-[[2-(5-Chloro-2-hydroxy-phenyl)acetyl]amino]-N-(1-methylcyclohexyl)pyridine-2-carboxamide] | 239% | 6.82
Cn1nc(-c2ccccc2)cc1C(=O)Nc1ccnc(C(=O)NC(C)(C)C#N)c1 [Example 83.22, N-(1-Cyano-1-methyl-ethyl)-4-[(2-methyl-5-phenyl-pyrazole-3-carbonyl)amino]pyridine-2-carboxamide] | 85% | –
C#CC1(NC(=O)c2cc(NC(=O)Cc3cc(Cl)ccc3O)ccn2)CCCC1 [Example 31.2, 4-[[2-(5-Chloro-2-hydroxy-phenyl)acetyl]amino]-N-(1-ethynylcyclopentyl)pyridine-2-carboxamide] | 110% | 8.00
CC1(NC(=O)c2cc(NC(=O)Cc3cc(Cl)ccc3O)ccn2)CCCC1 [Example 38, 4-[[2-(5-Chloro-2-hydroxy-phenyl)acetyl]amino]-N-(1-methylcyclopentyl)pyridine-2-carboxamide] | 307% | 7.30
CC(C)(C)NC(=O)c1cc(NC(=O)Cc2ccccc2OC(F)F)ccn1 [Example 23.4, N-tert-Butyl-4-[[2-[2-(difluoromethoxy)phenyl]acetyl]amino]pyridine-2-carboxamide] | 115% | –
Cc1nn(-c2ccccc2)cc1C(=O)Nc1ccnc(C(=O)NC(C)(C)C#N)c1 [Example 83.24, N-(1-Cyano-1-methyl-ethyl)-4-[(3-methyl-1-phenyl-pyrazole-4-carbonyl)amino]pyridine-2-carboxamide] | 55% | –
CC1(NC(=O)c2cccc(NC(=O)Cc3cc(Cl)ccc3O)c2)CCN(C(=O)OC(C)(C)C)CC1 [Example 8.2, tert-Butyl 4-[[3-[[2-(5-chloro-2-hydroxy-phenyl)acetyl]amino]benzoyl]amino]-4-methyl-piperidine-1-carboxylate] | 169% | 5.71
C[C@@H](NC(=O)Nc1ccnc(C(=O)NC(C)(C)C)c1)c1ccccc1 [Example 64.3, N-tert-Butyl-4-[[(1R)-1-phenylethyl]carbamoylamino]pyridine-2-carboxamide] | 70% | –
CC(C)(C)NC(=O)c1cc(NC(=O)Cc2cc(C#N)ccc2O)ccn1 [Example 6, N-tert-Butyl-4-[[2-(5-cyano-2-hydroxy-phenyl)acetyl]amino]pyridine-2-carboxamide] | 162% | 5.94
CC(C)(C)NC(=O)c1cc(NC(=O)Cc2ccccc2Cl)ccn1 [Example 5.20, N-tert-Butyl-4-[[2-(2-chlorophenyl)acetyl]amino]pyridine-2-carboxamide] | 221% | 6.24
O=C(Cc1cc(Cl)ccc1O)Nc1cccc(C(=O)NC2CCCCC2)c1 [Example 7.3, 3-[[2-(5-Chloro-2-hydroxy-phenyl)acetyl]amino]-N-cyclohexyl-benzamide] | 125% | 6.70
CC(C)(C)c1ccc(CC(=O)Nc2ccnc(C(=O)NC3(C#N)CCOCC3)c2)cc1O [Example 93.3, 4-[[2-(4-tert-Butyl-3-hydroxy-phenyl)acetyl]amino]-N-(4-cyanotetrahydropyran-4-yl)pyridine-2-carboxamide] | 130% | 7.22
O=C(Cc1cc(Cl)ccc1O)Nc1ccnc(C(=O)NC2(CO)CCOCC2)c1 [Example 53, 4-[[2-(5-Chloro-2-hydroxy-phenyl)acetyl]amino]-N-[4-(hydroxymethyl)tetrahydropyran-4-yl]pyridine-2-carboxamide] | 184% | 6.41
CC(C)(C)NC(=O)c1cc(NC(=O)Cc2cc(Cl)cc(Cl)c2)ccn1 [Example 5.19, N-tert-Butyl-4-[[2-(3,5-dichlorophenyl)acetyl]amino]pyridine-2-carboxamide] | 75% | 5.73
CC12CC(NC(=O)c3cc(NC(=O)Cc4ccccc4Cl)ccn3)(C1)C2 [Example 30.4, 4-[[2-(2-Chlorophenyl)acetyl]amino]-N-(1-methyl-3-bicyclo[1.1.1]pentanyl)pyridine-2-carboxamide] | 95% | 6.12
CC1(NC(=O)c2cccc(NC(=O)Cc3cc(Cl)ccc3O)c2)CCCCC1 [Example 71.1, 3-[[2-(5-Chloro-2-hydroxy-phenyl)acetyl]amino]-N-(1-methylcyclohexyl)benzamide] | 256% | 6.60
CC(NCC(F)(F)F)c1ccc(O)c(CC(=O)Nc2ccnc(C(=O)NC(C)(C)C)c2)c1 (stereo not shown) [Example 67, N-tert-Butyl-4-[[2-[2-hydroxy-5-[1-(2,2,2-trifluoroethylamino)ethyl]phenyl]acetyl]amino]pyridine-2-carboxamide] | 158% | 5.96
CC(C)(C)NC(=O)c1cc(NC(=O)Cc2c(O)c(Br)cc(Cl)c2Br)ccn1 [Example 3.11b, N-tert-Butyl-4-[[2-(2,5-dibromo-3-chloro-6-hydroxy-phenyl)acetyl]amino]pyridine-2-carboxamide] | 168% | 6.39
O=C(Cc1cc(F)ccc1O)Nc1cccc(C(=O)NC2CCCCC2)c1 [Example 35.22, N-Cyclohexyl-3-[[2-(5-fluoro-2-hydroxy-phenyl)acetyl]amino]benzamide] | 104% | 6.66
CCC(C)(C)NC(=O)c1cccc(NC(=O)Cc2cc(Cl)ccc2O)c1 [Example 1.5, 3-[[2-(5-Chloro-2-hydroxy-phenyl)acetyl]amino]-N-(1,1-dimethylpropyl)benzamide] | 149% | 6.47
O=C(Cc1cc(Cl)ccc1O)Nc1ccnc(C(=O)N[C@@H]2CCC[C@H]2O)c1 [Example 33, 4-[[2-(5-Chloro-2-hydroxy-phenyl)acetyl]amino]-N-[(1R,2R)-2-hydroxycyclopentyl] pyridine-2-carboxamide] | 245% | 6.62
O=C(Cc1cc(Cl)ccc1O)Nc1ccnc(C(=O)N[C@H]2CCCC[C@@H]2O)c1 (single isomer, unassigned) [Example 31.3a, 4-[[2-(5-Chloro-2-hydroxy-phenyl)acetyl]amino]-N-[(1S,2S)-2-hydroxycyclohexyl]pyridine-2-carboxamide or 4-[[2-(5-Chloro-2-hydroxy-phenyl)acetyl]amino]-N-[(1R,2R)-2-hydroxycyclohexyl]pyridine-2-carboxamide] | 238% | 6.26
CC(C)(C)NC(=O)c1cc(NC(=O)Cc2cc(Cl)ccc2F)ccn1 [Example 5.3, N-tert-Butyl-4-[[2-(5-chloro-2-fluoro-phenyl)acetyl]amino]pyridine-2-carboxamide] | 152% | 6.06
